Test results published in ChEMBL document CHEMBL1201862, “PubChem BioAssay data set” (2004).
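Assay format: 96-well plates, 48-hour exposure. At the GI50, growth is halved.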 Activity calls are given as the source filed them. No stated cut-off is given here; in the data, active = GI50 up to about 1.1 µM and inactive = higher.

Columns and labels:
Assay in all cases: NCI-60 cell line screen, 48 h
HOP-18 = test system: HOP-18
SNB-78 = test system: SNB-78
M19-MEL = test system: M19-MEL
DLD-1 = test system: DLD-1
RXF 631 = test system: RXF 631
KM-20L2 = test system: KM-20L2
DMS-273 = test system: DMS-273
XF498 = test system: XF498
BT-549 = test system: BT-549

Measured: GI50

CCc1cccc(=O)c([O-])c1.CCc1cccc(=O)c([O-])c1.[Bi+3].[Cl-]
inactive: HOP-18 16.2 µM | SNB-78 7.19 µM | M19-MEL 6.98 µM | DLD-1 2.91 µM | RXF 631 4.13 µM | KM-20L2 10.5 µM | DMS-273 7.53 µM | XF498 2.38 µM

NC1=NC(=O)/C(=C/c2ccccc2[N+](=O)[O-])C(N)=N1
inactive: HOP-18 > 100 µM | SNB-78 > 100 µM | M19-MEL > 100 µM | DLD-1 > 100 µM | RXF 631 > 100 µM | KM-20L2 > 100 µM | DMS-273 > 100 µM | XF498 > 100 µM

Cc1ccccc1NC(=O)/C(=N/NC(=O)CC#N)C1C(=O)N(c2ccccc2)N=C1N (stereo not drawn)
inactive: HOP-18 > 100 µM | SNB-78 > 100 µM | M19-MEL > 100 µM | DLD-1 79.6 µM | RXF 631 > 100 µM | KM-20L2 > 100 µM | DMS-273 > 100 µM | XF498 > 100 µM

O=C1C=C(Nc2ccccc2C(=O)CC(=O)C(=O)Nc2cccc(C(F)(F)F)c2)c2ccccc2C1=O
inactive: HOP-18 13.2 µM | BT-549 8.93 µM | SNB-78 > 36.7 µM | M19-MEL 2.53 µM | DLD-1 8.45 µM | RXF 631 > 100 µM | KM-20L2 > 100 µM | DMS-273 21.5 µM | XF498 26.2 µM

CCOC(=O)C(=O)Nc1ccccc1C(C)C
inactive: HOP-18 > 100 µM | M19-MEL > 100 µM | DLD-1 > 100 µM | RXF 631 > 100 µM | KM-20L2 > 100 µM | DMS-273 > 100 µM | XF498 > 100 µM

CN(C)CC1(Cc2ccccc2)CCC(Cc2ccccc2)C1=O (stereo not drawn)
inactive: HOP-18 8.47 µM | BT-549 8.95 µM | SNB-78 15.8 µM | M19-MEL 16.5 µM | DLD-1 2.86 µM | KM-20L2 17.1 µM | DMS-273 10.5 µM | XF498 21.9 µM

Brc1cc2c(cc1C1SCCS1)OCO2
inactive: HOP-18 > 100 µM | SNB-78 > 100 µM | DLD-1 > 100 µM | RXF 631 > 100 µM | KM-20L2 > 100 µM | DMS-273 > 100 µM

COc1ccc2cccc(C(=O)c3ccc(C)c4c3CCC4)c2c1
inactive: HOP-18 33.3 µM | M19-MEL 37.8 µM | DLD-1 21.5 µM | RXF 631 23 µM | KM-20L2 35.9 µM | DMS-273 29.1 µM

CCN(CC)CCCNc1nccc2c(C)c3[nH]c4ccncc4c(=O)c3cc12
inactive: HOP-18 2.52 µM | SNB-78 2.2 µM | DLD-1 1.79 µM | RXF 631 1.92 µM | KM-20L2 4.11 µM | DMS-273 2.19 µM | XF498 2.46 µM

CN1C(=O)CCC2[C@@H]3CC=C4C[C@@H](O)CC[C@]4(C)C3CC[C@@]21C (stereo partly drawn)
inactive: SNB-78 > 100 µM | M19-MEL 50.6 µM | DLD-1 > 100 µM | RXF 631 28 µM | KM-20L2 53.5 µM | DMS-273 64.1 µM | XF498 45.7 µM

O=C(N[C@H]1CC2(C=C(I)C(=O)C(I)=C2)OC1=O)OCc1ccccc1
inactive: SNB-78 17.4 µM | DLD-1 15.7 µM | RXF 631 17.1 µM | KM-20L2 18.6 µM | XF498 13.8 µM

O=C1c2cccc3cccc(c23)C(=O)N1CCN(CCO)CCO
inactive: HOP-18 75 µM | SNB-78 42.1 µM | M19-MEL 21.5 µM | DLD-1 30.6 µM | RXF 631 35.8 µM | KM-20L2 21.1 µM | DMS-273 22.8 µM | XF498 28.5 µM

Cc1c(C(=O)O)oc2ccc([N+](=O)[O-])cc12
inactive: HOP-18 > 100 µM | SNB-78 > 100 µM | M19-MEL > 100 µM | DLD-1 > 100 µM | RXF 631 > 100 µM | KM-20L2 > 100 µM | DMS-273 > 100 µM | XF498 > 100 µM

CCOC(=O)C1=C(C)NC(=S)NC1c1ccccc1 (stereo not drawn)
inactive: HOP-18 > 35.6 µM | SNB-78 > 100 µM | M19-MEL > 43.9 µM | DLD-1 > 57.9 µM | RXF 631 > 100 µM | KM-20L2 > 41.4 µM | DMS-273 > 100 µM | XF498 > 39.4 µM
